In this assay the target is T1, Endothelial lipase (Homo sapiens, UniProt Q9Y5X9).
T1 sequence (Q9Y5X9 whole entry): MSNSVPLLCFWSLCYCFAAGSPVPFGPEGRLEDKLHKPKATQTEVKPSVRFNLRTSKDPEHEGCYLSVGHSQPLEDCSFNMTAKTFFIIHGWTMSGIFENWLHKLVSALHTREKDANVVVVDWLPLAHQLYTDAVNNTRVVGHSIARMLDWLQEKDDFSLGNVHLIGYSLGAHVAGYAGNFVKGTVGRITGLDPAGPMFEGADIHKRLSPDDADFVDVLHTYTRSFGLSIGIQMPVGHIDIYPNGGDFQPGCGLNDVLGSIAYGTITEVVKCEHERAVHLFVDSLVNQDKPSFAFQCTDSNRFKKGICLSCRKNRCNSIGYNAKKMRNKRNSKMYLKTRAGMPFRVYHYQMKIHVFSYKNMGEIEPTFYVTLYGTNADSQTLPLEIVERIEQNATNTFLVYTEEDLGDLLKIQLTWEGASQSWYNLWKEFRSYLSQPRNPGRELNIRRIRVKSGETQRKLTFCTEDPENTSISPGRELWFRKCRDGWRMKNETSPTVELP
Kind of assay: Enzyme Assay: The enzymatic assay was measured using white, opaque 96-well half area plates. Each well contained 60 uL of assay buffer (50 mM HEPES pH 8.0, 50 mM NaCl and 1 mM CaCl2) and 2 ul of a DMSO solution containing compound of interest. Conditioned media obtained from HT-1080 cells, which were transformed by RAGE technology (Athersys) to overexpress endogenous EL, was added and the reaction was allowed to incubate for 20 min at 37° C. with gentle agitation. The reaction was started by the addition of 20 uL of a 1:4 dilution of vesicles. The final total reaction volume was 100 uL. The reaction rates were measured on a Gemini plate reader with an excitation wavelength of 488 nm and a emission of 530 nm. Readings were taken every 20 seconds for 10 min with agitation between each reading. It is filed as cell-based.
`O=C(NCCCc1ccc(Cl)c(Cl)c1)C1=C(O)C(=O)N(Cc2ccccc2C(=O)O)C1` came in with an IC50 of 488 nM. The figure for `CN1CC(C(=O)NCCCc2ccccc2C(F)(F)F)=C(O)C1=O` is 436 nM; for `CC1C(C(=O)NCCCc2ccc(Cl)c(Cl)c2)=C(O)C(=O)N1CCc1ccc(F)cc1` (stereo not drawn) it is 486 nM.

As a reminder, the IC50 is the concentration at which inhibition is half-maximal. Higher therefore signals a need for much substance.

The values are drawn from ChEMBL document CHEMBL3886502, “Pyrrolinone carboxamide compounds useful as endothelial lipase inhibitors” (2016).
